The text below walks through data of publication PMC10913730, “Antimicrobial activity of a natural compound and analogs against multi-drug-resistant Gram-positive pathogens” (Microbiology Spectrum, 2024).

In general, MIC90 refers to the lowest concentration that inhibits either 90% of growth or 90% of the strains tested, depending on the study. A word on the MIC: it is the least concentration at which growth counts as inhibited.

The subject of series [1] is MRSA isolate TCH 1516. As to the kind of experiment: Resistance acquisition during serial passage. The series is classed as cell-based, Staphylococcus aureus. The following applies: for increase in MIC: serial passage. As to the method:
MRSA isolate TCH 1516 was grown to the stationary phase (OD650 = 1.0) in 10 mL of MH broth. […] The second highest drug concentration resulting in bacterial growth (OD650 >1.0) was used as the inoculum after a 1:1,000 dilution for subsequent steps, every 24 hours, for up to 21 days.

The subject of series [2] is MRSA isolates. As to the kind of experiment: MIC/MBC, CLSI broth microdilution, MRSA isolates. The series is classed as cell-based, Staphylococcus aureus. The following applies: Staphylococcus aureus. For orientation: In broth dilution the organism is exposed to a series of concentrations in liquid medium.
Series [3] in a line: pH and Ka of 10-g/L aqueous solutions (pH meter). The settings on record: 10-g/L solution in distilled, deionized water, room temperature. The series is classed as physicochemical.
The mark [4] stands for this setting: 39 evaluated MRSA isolates, CLSI broth microdilution, read-out: MBC90.
The mark [5] stands for this setting: 39 evaluated MRSA isolates, CLSI broth microdilution, read-out: MIC90.
The mark [6] stands for this setting: MRSA, 39 evaluated MRSA isolates, CLSI broth microdilution.
[7] abbreviates: MRSA, pH 5.5, MRSA 0606, pH 5.5.
Setting [8] is: MRSA, pH 5.5, MRSA 0608, pH 5.5.
The mark [9] stands for this setting: MRSA, pH 5.5, MRSA 0634, pH 5.5.
Where [10] appears, read: MRSA, pH 5.5, MRSA 0641, pH 5.5.
The mark [11] stands for this setting: MRSA, pH 5.5, MRSA 0646, pH 5.5.
[12] abbreviates: MRSA, pH 6.5, MRSA 0606, pH 6.5.
Setting [13] is: MRSA, pH 6.5, MRSA 0608, pH 6.5.
Where [14] appears, read: MRSA, pH 6.5, MRSA 0634, pH 6.5.
Setting [15] is: MRSA, pH 6.5, MRSA 0641, pH 6.5.
The mark [16] stands for this setting: MRSA, pH 6.5, MRSA 0646, pH 6.5.
Setting [17] is: MRSA, pH 7.4, MRSA 0606, pH 7.4.
The mark [18] stands for this setting: MRSA, pH 7.4, MRSA 0608, pH 7.4.
Setting [19] is: MRSA, pH 7.4, MRSA 0634, pH 7.4.
Setting [20] is: MRSA, pH 7.4, MRSA 0641, pH 7.4.
Setting [21] is: MRSA, pH 7.4, MRSA 0646, pH 7.4.
[22] abbreviates: MRSA, read-out: MBC90, 39 evaluated MRSA isolates, CLSI broth microdilution.

Converted amounts (≈) assume the structure as drawn. Where two headings read alike, the source gives them in different places. Where only a bound is given, the exact number is not on record here.

In the case of `CC(=O)NC[C@H]1CN(c2ccc(N3CCOCC3)c(F)c2)C(=O)O1` [Linezolid, linezolid, reference compound], in series [1] (after 21 days), the “increase in MIC” value came out at 16 fold. Also, the MBC in series [2] (setting [4]) was > 32 µg/mL. In addition, in series [2] (setting [5]), the MIC90 amounted to 4 µg/mL (≈ 11.9 µM).
Regarding `CCC[C@@H]1C[C@@H](C(=O)N[C@@H]([C@H]2O[C@H](SC)[C@H](O)[C@@H](O)[C@H]2O)[C@H](C)Cl)N(C)C1` [Clindamycin, clindamycin, reference compound], the minimum inhibitory concentration (MIC) in series [1] (Staphylococcus aureus, MRSA, 408 h, read-out: MIC after serial passage) worked out at 32 µg/mL (≈ 75.3 µM). For the same compound, in series [1] (after 17 days), the “increase in MIC” value is reported as 256 fold. Besides, the MBC in series [2] (setting [4]) was > 32 µg/mL. Also, the MIC90 in series [2] (setting [5]) is > 32 µg/mL.
`CCCCCCCCCC(=O)N[C@@H](Cc1c[nH]c2ccccc12)C(=O)N[C@H](CC(N)=O)C(=O)N[C@@H](CC(=O)O)C(=O)N[C@@H]1C(=O)NCC(=O)N[C@@H](CCCN)C(=O)N[C@@H](CC(=O)O)C(=O)N[C@H](C)C(=O)N[C@@H](CC(=O)O)C(=O)NCC(=O)N[C@H](CO)C(=O)N[C@@H]([C@H](C)CC(=O)O)C(=O)N[C@@H](CC(=O)c2ccccc2N)C(=O)O[C@@H]1C` [Daptomycin, daptomycin, reference compound]: in series [2] (setting [4]), the MBC was determined as 2 µg/mL (≈ 1.23 µM). In series [2] (setting [5]), the MIC90 is 2 µg/mL (≈ 1.23 µM).
Regarding `[Li+].[Li+].[O-]c1c(Cl)cc(Cl)cc1-c1cc(Cl)cc(Cl)c1[O-]` [C59Li], the pH of solution entry in series [3] is on record as “greater than 10”. Also, the MIC90 in series [2] (setting [6]) came out at 4 µg/mL. Besides, the MBC in series [2] (setting [7]) amounted to 0.25 µg/mL; in series [2] (setting [8]) it was 0.25 µg/mL; in series [2] (setting [9]), 0.25 µg/mL; in series [2] (setting [10]), 0.25 µg/mL; in series [2] (setting [11]), 0.25 µg/mL; in series [2] (MRSA, pH 5.5, TCH 1516, pH 5.5), 0.25 µg/mL. Further, the MBC in series [2] (MRSA, pH 5.5, read-out: Average MBC, average of six MRSA isolates, pH 5.5) amounted to 0.25 µg/mL; in series [2] (setting [12]), 1 µg/mL; in series [2] (setting [13]), 2 µg/mL; in series [2] (setting [14]), 1 µg/mL; in series [2] (setting [15]), 6 µg/mL; in series [2] (setting [16]), 1 µg/mL. Also, the MBC is 1 µg/mL in series [2] (MRSA, pH 6.5, TCH 1516, pH 6.5); 2 µg/mL in series [2] (MRSA, pH 6.5, read-out: Average MBC, average of six MRSA isolates, pH 6.5); 2 µg/mL in series [2] (setting [17]); 6 µg/mL in series [2] (setting [18]); 2 µg/mL in series [2] (setting [19]); 4 µg/mL in series [2] (setting [20]). Besides, the MBC came to 4 µg/mL in series [2] (setting [21]); 2 µg/mL in series [2] (MRSA, pH 7.4, TCH 1516, pH 7.4); 3.3 µg/mL in series [2] (MRSA, pH 7.4, read-out: Average MBC, average of six MRSA isolates, pH 7.4); 4 µg/mL in series [2] (setting [22]). Moreover, the MIC in series [2] (setting [7]) was determined as 0.25 µg/mL; in series [2] (setting [8]), 0.25 µg/mL; in series [2] (setting [9]), 0.25 µg/mL; in series [2] (setting [10]) it was 0.25 µg/mL; in series [2] (setting [11]), 0.25 µg/mL; in series [2] (MRSA, pH 5.5, TCH 1516, pH 5.5) it was 0.25 µg/mL. Further, the minimum inhibitory concentration (MIC) amounted to 0.25 µg/mL in series [2] (MRSA, pH 5.5, read-out: Average MIC, average of six MRSA isolates, pH 5.5); 1 µg/mL in series [2] (setting [12]); 1 µg/mL in series [2] (setting [13]); 1 µg/mL in series [2] (setting [14]); 0.5 µg/mL in series [2] (setting [15]); 0.5 µg/mL in series [2] (setting [16]). Also, the MIC was found to be 1 µg/mL in series [2] (MRSA, pH 6.5, TCH 1516, pH 6.5); 0.83 µg/mL in series [2] (MRSA, pH 6.5, read-out: Average MIC, average of six MRSA isolates, pH 6.5); 1 µg/mL in series [2] (setting [17]); 2 µg/mL in series [2] (setting [18]); 2 µg/mL in series [2] (setting [19]); 2 µg/mL in series [2] (setting [20]). Besides, the minimal inhibitory concentration (MIC) in series [2] (setting [21]) was determined as 1 µg/mL; in series [2] (MRSA, pH 7.4, TCH 1516, pH 7.4), 2 µg/mL; in series [2] (MRSA, pH 7.4, read-out: Average MIC, average of six MRSA isolates, pH 7.4) it was 1.7 µg/mL.
Regarding `[K+].[K+].[O-]c1c(Cl)cc(Cl)cc1-c1cc(Cl)cc(Cl)c1[O-]` [C59K], the pH of solution entry in series [3] is on record as “greater than 10”. Further, the MIC90 in series [2] (setting [6]) turned out to be 2 µg/mL. Moreover, the MBC is 6 µg/mL in series [2] (setting [17]); 4 µg/mL in series [2] (setting [18]); 6 µg/mL in series [2] (setting [19]); 4 µg/mL in series [2] (setting [20]); 4 µg/mL in series [2] (setting [21]); 4 µg/mL in series [2] (MRSA, pH 7.4, TCH 1516, pH 7.4). Besides, the MBC in series [2] (setting [22]) came to 4 µg/mL. The MIC in series [2] (setting [17]) was determined as 2 µg/mL; in series [2] (setting [18]), 4 µg/mL; in series [2] (setting [19]) it was 2 µg/mL; in series [2] (setting [20]), 2 µg/mL; in series [2] (setting [21]) it was 2 µg/mL; in series [2] (MRSA, pH 7.4, TCH 1516, pH 7.4), 2 µg/mL.
